{"source": "ChEMBL document CHEMBL4052642", "about": "“4-Methyl-6,7-dihydro-4H-triazolo[4,5-c]pyridine-Based P2X7 Receptor Antagonists: Optimization of Pharmacokinetic Properties Leading to the Identification of a Clinical Candidate” (J Med Chem, 2017)", "key": {"[1]": {"organism": "Homo sapiens", "test": "Toxicity in human at 0.5 to 600 mg"}, "[2]": {"system": "Canis familiaris", "test": "Toxicity in dog at 30 to 300 mg/kg administered via oral gavage on day 1 and day 5 by hematoxylin-eosin staining-based necroscopic method", "assay_type": "organism-based, Canis lupus familiaris", "settings": "in vivo"}, "[3]": {"system": "Canis familiaris", "test": "Toxicity in dog assessed as change in serum chemistry at 30 to 300 mg/kg administered via oral gavage on day 1 and day 5", "assay_type": "organism-based, Canis lupus familiaris", "settings": "in vivo"}, "[4]": {"system": "Rattus norvegicus", "test": "Toxicity in rat at 62.5 to 250 mg/kg administered via oral gavage on day 1 and day 4", "assay_type": "organism-based", "settings": "in vivo"}, "[5]": {"test": "Drug uptake in dog brain at 3 mg/kg, po after 96 hrs", "assay_type": "ADME, organism-based, Canis lupus familiaris", "settings": "read-out: Drug uptake"}, "[6]": {"test": "Drug uptake in dog brain at 3 mg/kg, po after 168 hrs", "assay_type": "ADME, organism-based, Canis lupus familiaris", "settings": "read-out: Drug uptake"}, "[7]": {"system": "Canis familiaris", "test": "Ex vivo receptor occupancy at P2X7 in dog brain at 3 mg/kg, po after 96 hrs by autoradiography", "assay_type": "functional, organism-based", "settings": "Canis lupus familiaris"}, "[8]": {"system": "Canis familiaris", "test": "Inhibition of LPS/Bz-ATP-induced IL-1beta release in dog blood at 3 mg/kg, po after 4 to 96 hrs", "assay_type": "functional, organism-based", "settings": "Canis lupus familiaris"}, "[9]": {"system": "Rattus norvegicus", "test": "Inhibition of Bz-ATP-induced IL-1beta release in po dosed Sprague-Dawley rat hippocampus preincubated for 1 hr followed by Bz-ATP challenge measured after 2 hrs by microdialysis method", "assay_type": "functional, organism-based"}, "[10]": {"target": "P2X purinoceptor 7 (Rattus norvegicus) (UniProt Q64663)", "sequence (Q64663 whole entry)": "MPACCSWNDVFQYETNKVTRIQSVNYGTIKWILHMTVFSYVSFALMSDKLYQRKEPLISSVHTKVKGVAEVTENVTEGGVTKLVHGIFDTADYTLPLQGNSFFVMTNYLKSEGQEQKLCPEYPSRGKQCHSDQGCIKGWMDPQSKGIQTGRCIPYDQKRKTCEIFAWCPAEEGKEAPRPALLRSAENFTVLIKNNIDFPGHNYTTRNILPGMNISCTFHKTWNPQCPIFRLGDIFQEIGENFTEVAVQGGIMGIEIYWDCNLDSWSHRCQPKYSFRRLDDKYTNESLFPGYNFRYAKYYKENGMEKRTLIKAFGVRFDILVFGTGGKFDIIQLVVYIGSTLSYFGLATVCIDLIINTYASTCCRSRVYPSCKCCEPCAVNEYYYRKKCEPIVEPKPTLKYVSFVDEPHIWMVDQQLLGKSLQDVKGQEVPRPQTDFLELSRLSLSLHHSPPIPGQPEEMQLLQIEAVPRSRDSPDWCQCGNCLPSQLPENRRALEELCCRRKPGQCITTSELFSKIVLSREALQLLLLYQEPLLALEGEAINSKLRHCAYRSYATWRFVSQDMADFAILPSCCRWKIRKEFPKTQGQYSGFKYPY", "test": "Displacement of [3H]-(6S)-7-[[2-chloro-3-(trifluoromethyl)phenyl]methyl]-6-methyl-3-pyrimidin-2-yl-5,6dihydro[1,2,4]triazolo[4,3-a]pyrazin-8-one from P2X7 in rat frontal cortex at 100 pM to 10 uM"}, "[11]": {"test": "Antagonist activity at P2X7 in dog whole blood assessed as inhibition of BzATP-induced IL-1beta release preincubated for 30 mins followed by BzATP addition measured after […] by ELISA", "settings": "Canis lupus familiaris"}, "[12]": {"target": "P2X purinoceptor 7 (Mus musculus, UniProt Q9Z1M0)", "sequence (Q9Z1M0 whole entry)": "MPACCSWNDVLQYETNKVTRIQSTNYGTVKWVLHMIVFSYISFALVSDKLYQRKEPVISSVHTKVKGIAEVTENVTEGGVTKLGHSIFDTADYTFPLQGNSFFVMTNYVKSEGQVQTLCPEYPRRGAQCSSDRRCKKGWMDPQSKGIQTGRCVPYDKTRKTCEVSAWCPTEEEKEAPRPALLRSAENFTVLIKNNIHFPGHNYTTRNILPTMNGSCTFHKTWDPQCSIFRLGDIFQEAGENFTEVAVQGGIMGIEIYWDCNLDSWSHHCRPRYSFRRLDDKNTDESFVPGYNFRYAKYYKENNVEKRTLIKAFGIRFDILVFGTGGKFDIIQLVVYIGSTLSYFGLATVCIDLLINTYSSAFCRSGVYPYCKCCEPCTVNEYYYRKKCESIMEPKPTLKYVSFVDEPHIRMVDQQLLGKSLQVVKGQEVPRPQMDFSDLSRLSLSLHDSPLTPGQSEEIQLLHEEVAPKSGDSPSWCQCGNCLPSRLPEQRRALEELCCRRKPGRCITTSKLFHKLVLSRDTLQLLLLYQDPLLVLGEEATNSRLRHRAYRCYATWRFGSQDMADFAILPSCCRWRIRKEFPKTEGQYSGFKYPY", "test": "Antagonist activity at mouse P2X7 assessed as inhibition of BzATP-induced calcium flux preincubated for 30 mins followed by BzATP addition measured over 180 secs by FLIPR assay"}, "[13]": {"test": "Apparent permeability across apical to basolateral side in human Caco2 cells", "assay_type": "ADME, cell-based", "settings": "Caco-2"}, "[14]": {"target": "P2X purinoceptor 4 (Homo sapiens) (UniProt Q99571)", "sequence (Q99571 whole entry)": "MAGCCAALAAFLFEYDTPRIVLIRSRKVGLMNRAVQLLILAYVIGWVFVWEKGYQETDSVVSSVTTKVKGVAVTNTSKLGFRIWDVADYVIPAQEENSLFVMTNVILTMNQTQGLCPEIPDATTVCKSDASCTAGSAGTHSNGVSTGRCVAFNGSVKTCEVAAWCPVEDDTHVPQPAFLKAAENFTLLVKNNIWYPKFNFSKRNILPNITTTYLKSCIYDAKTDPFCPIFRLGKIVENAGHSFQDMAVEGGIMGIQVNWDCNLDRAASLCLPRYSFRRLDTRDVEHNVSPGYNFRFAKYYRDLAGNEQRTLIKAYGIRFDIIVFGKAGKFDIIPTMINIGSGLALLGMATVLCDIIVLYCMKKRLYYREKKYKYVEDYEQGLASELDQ", "test": "Antagonist activity at P2X4 (unknown origin) assessed as inhibition of BzATP-induced calcium flux up to 10 uM preincubated for 30 mins followed by BzATP addition measured over 180 secs by FLIPR assay"}, "[15]": {"target": "P2X2/P2X3 heterotrimeric receptor (Homo sapiens) (UniProt Q9UBL9+P56373)", "test": "Antagonist activity at P2X2/3 (unknown origin) assessed as inhibition of BzATP-induced calcium flux up to 10 uM preincubated for 30 mins followed by BzATP addition measured over 180 secs by FLIPR assay", "assay_type": "protein-complex assay"}, "[16]": {"target": "P2X purinoceptor 3 (Homo sapiens) (UniProt P56373)", "sequence (P56373 whole entry)": "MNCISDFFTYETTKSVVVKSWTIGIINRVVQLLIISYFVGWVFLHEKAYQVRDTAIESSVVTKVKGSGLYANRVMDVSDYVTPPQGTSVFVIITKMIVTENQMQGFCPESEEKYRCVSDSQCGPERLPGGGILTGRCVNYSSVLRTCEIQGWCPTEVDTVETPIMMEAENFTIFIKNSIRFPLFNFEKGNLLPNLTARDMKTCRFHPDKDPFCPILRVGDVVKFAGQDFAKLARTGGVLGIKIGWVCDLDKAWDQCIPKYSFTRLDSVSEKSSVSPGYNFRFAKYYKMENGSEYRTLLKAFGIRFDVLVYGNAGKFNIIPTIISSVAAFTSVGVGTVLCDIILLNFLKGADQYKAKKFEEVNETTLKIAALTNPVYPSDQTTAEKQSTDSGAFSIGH", "test": "Antagonist activity at P2X3 (unknown origin) assessed as inhibition of BzATP-induced calcium flux up to 10 uM preincubated for 30 mins followed by BzATP addition measured over 180 secs by FLIPR assay"}, "[17]": {"target": "P2X purinoceptor 1 (Homo sapiens) (UniProt P51575)", "sequence (P51575 whole entry)": "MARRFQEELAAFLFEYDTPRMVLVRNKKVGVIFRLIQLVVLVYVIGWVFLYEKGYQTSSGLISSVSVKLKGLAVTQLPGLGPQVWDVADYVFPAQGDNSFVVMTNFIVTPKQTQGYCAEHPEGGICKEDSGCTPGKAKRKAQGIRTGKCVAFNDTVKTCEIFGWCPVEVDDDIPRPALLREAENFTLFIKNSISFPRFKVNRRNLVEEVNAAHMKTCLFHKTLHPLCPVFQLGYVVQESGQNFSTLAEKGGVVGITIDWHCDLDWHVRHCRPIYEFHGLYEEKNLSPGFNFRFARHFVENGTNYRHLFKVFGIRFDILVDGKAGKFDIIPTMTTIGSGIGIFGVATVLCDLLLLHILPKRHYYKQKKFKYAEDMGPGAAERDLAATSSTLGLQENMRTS", "test": "Antagonist activity at P2X1 (unknown origin) assessed as inhibition of BzATP-induced calcium flux up to 10 uM preincubated for 30 mins followed by BzATP addition measured over 180 secs by FLIPR assay"}, "[18]": {"test": "Metabolic stability in cynomolgus monkey liver microsomes at 1 uM after 5 to 60 mins by LC-MS/MS analysis", "assay_type": "ADME, Macaca fascicularis, microsome"}, "[19]": {"system": "Hepatocyte", "test": "Metabolic stability in hepatocytes (unknown origin)", "assay_type": "ADME, cell-based"}, "[20]": {"system": "Liver", "test": "Metabolic stability in dog liver microsomes at 1 uM after 5 to 60 mins by LC-MS/MS analysis", "assay_type": "ADME, Canis lupus familiaris, microsome"}, "[21]": {"system": "Cynomolgus monkey", "test": "Oral bioavailability in cynomolgus monkey at 5 mg/kg by LC-MS/MS analysis", "assay_type": "ADME, organism-based, Macaca fascicularis", "settings": "in vivo"}, "[22]": {"system": "Canis familiaris", "test": "Oral bioavailability in beagle dog at 2.5 mg/kg by LC-MS/MS analysis", "assay_type": "ADME, organism-based, Canis lupus familiaris", "settings": "in vivo"}, "[23]": {"test": "Half life in cynomolgus monkey at 1 mg/kg, iv by LC-MS/MS analysis", "assay_type": "ADME, organism-based, Macaca fascicularis", "settings": "in vivo"}, "[24]": {"test": "Half life in beagle dog at 0.5 mg/kg, iv by LC-MS/MS analysis", "assay_type": "ADME, organism-based, Canis lupus familiaris", "settings": "in vivo"}, "[25]": {"test": "Volume of distribution at steady state in beagle dog at 0.5 mg/kg, iv or 2.5 mg/kg, po by LC-MS/MS analysis", "assay_type": "ADME, organism-based, Canis lupus familiaris", "settings": "in vivo, read-out: Vdss"}, "[26]": {"test": "Clearance in beagle dog at 0.5 mg/kg, iv or 2.5 mg/kg, po by LC-MS/MS analysis", "assay_type": "ADME, organism-based, Canis lupus familiaris", "settings": "in vivo"}, "[27]": {"target": "T1, Cytochrome P450 2C8 (Homo sapiens, UniProt P10632)", "T1 sequence (P10632 whole entry)": "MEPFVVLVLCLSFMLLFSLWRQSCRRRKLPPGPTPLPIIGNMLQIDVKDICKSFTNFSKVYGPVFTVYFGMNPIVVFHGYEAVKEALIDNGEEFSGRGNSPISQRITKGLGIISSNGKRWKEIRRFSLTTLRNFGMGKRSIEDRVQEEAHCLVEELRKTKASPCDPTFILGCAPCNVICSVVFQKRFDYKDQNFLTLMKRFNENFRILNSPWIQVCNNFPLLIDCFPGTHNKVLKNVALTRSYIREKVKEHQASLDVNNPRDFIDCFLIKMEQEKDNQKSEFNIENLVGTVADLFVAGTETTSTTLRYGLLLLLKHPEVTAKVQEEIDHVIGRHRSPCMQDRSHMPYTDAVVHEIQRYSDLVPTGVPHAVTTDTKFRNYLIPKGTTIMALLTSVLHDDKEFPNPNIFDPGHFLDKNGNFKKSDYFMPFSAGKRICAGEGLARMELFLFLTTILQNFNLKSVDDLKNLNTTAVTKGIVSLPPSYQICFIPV", "test": "Inhibition of CYP2C8 in human liver microsomes using paclitaxel as substrate after 15 mins by LC-MS/MS analysis", "assay_type": "ADME"}, "[28]": {"system": "Rattus norvegicus", "test": "Ex vivo receptor occupancy at P2X7 in po dosed Sprague-Dawley rat brain after 60 mins by autoradiography", "assay_type": "functional"}, "[29]": {"test": "Half life in Sprague-Dawley rat at 1 mg/kg, iv by LC-MS/MS analysis", "assay_type": "ADME, organism-based", "settings": "in vivo"}, "[30]": {"test": "Volume of distribution at steady state in Sprague-Dawley rat at 1 mg/kg, iv or 5 mg/kg, po by LC-MS/MS analysis", "assay_type": "ADME, organism-based", "settings": "in vivo, read-out: Vdss"}, "[31]": {"test": "Solubility of compound in phosphate buffer at pH 7 after 3 days", "assay_type": "physicochemical"}, "[32]": {"test": "Clearance in Sprague-Dawley rat at 1 mg/kg, iv or 5 mg/kg, po by LC-MS/MS analysis", "assay_type": "ADME, organism-based", "settings": "in vivo"}, "[33]": {"test": "Protein binding in rat brain at 5 uM after 5 hrs by equilibrium dialysis method", "assay_type": "ADME, tissue-based", "settings": "read-out: PB (converted)"}, "[34]": {"test": "Protein binding in mouse plasma at 1 uM after 6 hrs by equilibrium dialysis method", "assay_type": "ADME, cell-free", "settings": "read-out: PPB (converted)"}, "[35]": {"target": "P2X purinoceptor 7 (Homo sapiens) (UniProt Q99572)", "sequence (Q99572 whole entry)": "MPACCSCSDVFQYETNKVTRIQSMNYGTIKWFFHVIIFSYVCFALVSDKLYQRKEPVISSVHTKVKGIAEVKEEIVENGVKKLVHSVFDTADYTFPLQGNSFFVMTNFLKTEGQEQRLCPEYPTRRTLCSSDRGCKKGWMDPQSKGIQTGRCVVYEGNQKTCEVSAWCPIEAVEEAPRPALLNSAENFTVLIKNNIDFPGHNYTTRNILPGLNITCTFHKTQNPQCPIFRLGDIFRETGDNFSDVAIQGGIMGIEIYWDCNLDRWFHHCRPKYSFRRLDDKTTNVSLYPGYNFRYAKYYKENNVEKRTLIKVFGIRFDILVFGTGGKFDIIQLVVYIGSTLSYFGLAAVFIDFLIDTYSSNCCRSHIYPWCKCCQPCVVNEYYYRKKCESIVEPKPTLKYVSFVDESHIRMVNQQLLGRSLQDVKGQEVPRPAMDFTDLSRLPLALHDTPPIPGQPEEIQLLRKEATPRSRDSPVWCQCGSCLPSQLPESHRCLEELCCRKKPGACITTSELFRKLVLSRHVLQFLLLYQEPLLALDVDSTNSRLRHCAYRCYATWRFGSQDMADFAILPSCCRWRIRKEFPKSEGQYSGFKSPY", "settings": "100 pM", "description": "Displacement of [3H]-(6S)-7-[[2-chloro-3-(trifluoromethyl)phenyl]methyl]-6-methyl-3-pyrimidin-2-yl-5,6dihydro[1,2,4]triazolo[4,3-a]pyrazin-8-one from P2X7 in human superior frontal gyrus at 100 pM to 10 uM"}}, "note": "pIC50: −log10 of the molar value. Activity calls are given as the source filed them. The calls are words filed in the database; no cut-off is given here."}
{"smiles": "C[C@@H]1c2nnn(-c3ncc(F)cn3)c2CCN1C(=O)c1cccc(C(F)(F)F)c1Cl", "note": "[JNJ-54175446]", "values": [{"measurement": "Activity", "setting": "[1]", "value": "Non-Toxic"}, {"measurement": "Activity", "setting": "[2]", "value": "Non-Toxic"}, {"measurement": "Activity", "setting": "[3]", "value": "Non-Toxic"}, {"measurement": "Activity", "setting": "[4]", "value": "Non-Toxic"}, {"measurement": "concentration at 96 h", "setting": "[5]", "value": "> 1000", "unit": "nM"}, {"measurement": "concentration at 168 h", "setting": "[6]", "value": "≤ 500", "unit": "nM"}, {"measurement": "Occ", "setting": "[7]", "value": "Active"}, {"measurement": "inhibition", "setting": "[8]", "value": "Active"}, {"measurement": "inhibition", "setting": "[9]", "value": "Dose-dependent effect"}, {"measurement": "inhibition", "setting": "[10]", "value": "Dose-dependent effect"}, {"measurement": "pIC50", "setting": "[11]", "value": 6.80}, {"measurement": "pIC50", "setting": "[12]", "value": 7.80}, {"measurement": "Papp A→B", "setting": "[13]", "value": 75.3, "unit": "×10⁻⁶ cm/s"}, {"measurement": "inhibition", "setting": "[14]", "value": "inactive"}, {"measurement": "inhibition", "setting": "[15]", "value": "inactive"}, {"measurement": "inhibition", "setting": "[16]", "value": "inactive"}, {"measurement": "inhibition", "setting": "[17]", "value": "inactive"}, {"measurement": "Stability", "setting": "[18]", "value": "Stable"}, {"measurement": "Stability", "setting": "[19]", "value": "Stable"}, {"measurement": "Stability", "setting": "[20]", "value": "Stable"}, {"measurement": "F", "setting": "[21]", "value": 157, "unit": "%"}, {"measurement": "F", "setting": "[22]", "value": 164, "unit": "%"}, {"measurement": "half-life", "setting": "[23]", "value": 6.9, "unit": "h"}, {"measurement": "half-life", "setting": "[24]", "value": 32, "unit": "h"}, {"measurement": "Vd", "setting": "[25]", "value": 2.5, "unit": "L/kg"}, {"measurement": "clearance", "setting": "[26]", "value": 0.9, "unit": "mL/min/kg"}, {"measurement": "pIC50", "setting": "[27]", "value": 5.02}, {"measurement": "Occ", "setting": "[28]", "value": "Dose-dependent effect"}, {"measurement": "ED50", "setting": "[28]; 1 h", "value": 0.46, "unit": "mg/kg"}, {"measurement": "half-life", "setting": "[29]", "value": 8.6, "unit": "h"}, {"measurement": "Vd", "setting": "[30]", "value": 2.1, "unit": "L/kg"}, {"measurement": "solubility at 72 h", "setting": "[31]", "value": 20.7, "unit": "µM"}, {"measurement": "clearance", "setting": "[32]", "value": 2.9, "unit": "mL/min/kg"}, {"measurement": "fraction unbound at 5 h, 5 µM", "setting": "[33]", "value": 0.051}, {"measurement": "fraction unbound at 6 h, 1 µM", "setting": "[34]", "value": 0.113}, {"measurement": "inhibition", "setting": "[35]", "value": "Dose-dependent effect"}]}
